Data set [1] addresses T1, COX-2 in RAW 264.7 macrophages (Mus musculus, UniProt Q05769).
T1 construct: endogenous in cells; host or cells: RAW 264.7 macrophages stimulated with LPS (and GM-CSF / interferon γ where described)
T1 sequence (Q05769 18-604): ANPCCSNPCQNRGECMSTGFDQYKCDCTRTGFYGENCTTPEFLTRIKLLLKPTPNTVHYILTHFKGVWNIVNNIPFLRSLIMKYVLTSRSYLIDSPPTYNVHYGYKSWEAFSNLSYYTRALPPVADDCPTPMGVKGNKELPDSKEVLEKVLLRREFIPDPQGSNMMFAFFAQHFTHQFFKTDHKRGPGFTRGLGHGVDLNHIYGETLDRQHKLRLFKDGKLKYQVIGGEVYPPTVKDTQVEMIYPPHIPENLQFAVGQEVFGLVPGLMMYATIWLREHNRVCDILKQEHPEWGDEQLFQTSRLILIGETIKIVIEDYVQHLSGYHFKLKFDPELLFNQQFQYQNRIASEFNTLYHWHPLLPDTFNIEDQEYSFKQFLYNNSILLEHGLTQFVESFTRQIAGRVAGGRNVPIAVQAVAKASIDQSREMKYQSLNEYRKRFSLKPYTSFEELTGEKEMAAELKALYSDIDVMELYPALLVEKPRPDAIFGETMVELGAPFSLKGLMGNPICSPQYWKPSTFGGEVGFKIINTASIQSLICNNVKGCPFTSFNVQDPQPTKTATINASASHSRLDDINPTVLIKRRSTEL
As to the kind of experiment: RAW cells assay: oxygenation of 2-AG and AA. The format is cell-based. Particulars: for inhibition at 25 µM: at 25 μM compound; for IC50: conversion of 2-AG to PGE2-G/PGD2-G. Here is the method:
Two hours after stimulation, varying doses of inhibitor were added to the cell media and 6 hr after stimulation the media were collected and analyzed by LC-MS-MS for prostaglandin levels.
The cells were then stimulated overnight with 20 ng/ml of granulocyte-macrophage colony-stimulating factor. The media was replaced in the morning with DMEM with GLUTAMAX® and the cells were stimulated with 100 ng/ml lipopolysaccharide and 20 units/ml interferon γ. Two hours after stimulation varying doses of inhibitor were added to the cell media and 6 hours after stimulation the media was collected and extracted in acidified ethyl acetate spiked with deuterated internal standards. The organic layer was dried down under a stream of nitrogen gas and reconstituted in 1:1 water:methanol and analyzed by LC-MS/MS for prostaglandin levels using the same instrumentation, column, solvents and conditions as described for the in vitro assay above.

A short description of data set [2]: In vivo mouse assay: plasma levels. Further details: species or system C57BL/6 mice.
The target in a further data set is T2, purified murine COX-2 (Mus musculus, UniProt Q05769).
T2 sequence (Q05769 18-604): T1 sequence (Q05769 18-604)
As to the kind of experiment: Inhibition of mCOX-2 dependent oxygenation of 2-AG and AA by profens in vitro. The format is biochemical. Further details: made in house; host or cells: insect cells. As to conditions: achiral profens; for inhibition at 10 µM: at 10 μM inhibitor; for IC50: murine COX-2 40 nM, 3 min preincubation, 37° C., 30 s, mean ± SD, read-out: 2-AG IC50. The protocol: Desired concentrations of inhibitor in DMSO or blank (DMSO) were incubated with mCOX-2 (40 nM) for 3 minutes in 100 mM Tris-HCl with 0.5 mM phenol, pH 8.0 at 37° C. After pre-incubation of enzyme and inhibitor, 5 μM of AA or 2-AG was added at 37° C. Thirty seconds later, the reaction was quenched with 200 μL of ice-cold ethyl acetate containing 0.5% acetic acid (v/v) and 1 μM PGE2-d4 and PGE2-G-d5. The solution was then vortexed and the aqueous layer frozen. The organic layer was removed and evaporated to near-dryness under nitrogen. The samples were reconstituted in 1:1 MeOH:H2O and chromatographed using a LUNA® C18(2) column (50 2 mm, 3 μm; Phenomenex, Torrance, Calif., United States of America). […] Analyte peak areas were normalized to the appropriate internal standard to determine the amount of product formation, and inhibition was determined by normalization to a DMSO control.

The nature of data set [3]: Chiral HPLC of (R)-profen-treated DRG extracts (racemization). The format is in vitro ADME, mouse. An excerpt: A Daicel chiralpak chiral column was used in conjunction with a normal-phase HPLC gradient to separate the profen enantiomers.
Another data set deals with T3, FAAH (Homo sapiens, UniProt O00519).
T3 sequence (O00519 1-579): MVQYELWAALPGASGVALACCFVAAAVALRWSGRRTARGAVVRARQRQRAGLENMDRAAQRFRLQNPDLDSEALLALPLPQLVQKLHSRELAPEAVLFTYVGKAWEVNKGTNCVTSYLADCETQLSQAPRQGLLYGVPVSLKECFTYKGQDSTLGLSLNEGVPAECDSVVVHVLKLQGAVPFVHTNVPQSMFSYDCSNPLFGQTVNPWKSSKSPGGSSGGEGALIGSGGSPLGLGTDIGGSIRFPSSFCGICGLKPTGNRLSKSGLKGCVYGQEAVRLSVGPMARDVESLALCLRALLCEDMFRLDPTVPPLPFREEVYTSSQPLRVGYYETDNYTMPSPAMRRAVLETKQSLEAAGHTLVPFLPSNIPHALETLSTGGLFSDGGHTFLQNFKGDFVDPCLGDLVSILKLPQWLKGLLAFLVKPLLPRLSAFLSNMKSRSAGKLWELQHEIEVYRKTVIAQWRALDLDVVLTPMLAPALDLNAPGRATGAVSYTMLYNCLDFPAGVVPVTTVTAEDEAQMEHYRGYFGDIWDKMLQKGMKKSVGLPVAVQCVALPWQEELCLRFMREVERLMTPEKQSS
As to conditions: in vitro; Bishay et al., 2010; cited from earlier work.

The test system of data set [4] is brain eCB, AA and PG levels. As to the kind of experiment: Brain eCB, NAE, MAG, AA and PG levels after i.p. injection. The data set is classed as in vivo, mice. Particulars: 10 mg/kg i.p., 2 hours. Here is the method: 5-7 week old male ICR mice were used for all experiments with the exception of knockout animals (Harlan, Indianapolis, Ind., United States of America). Mice were housed 5 per […]. All behavioral tests were conducted during the light cycle between 0900 and 1700. KO and WT littermate controls for FAAH^(−/−) and COX-2^(−/−) mice were derived from heterozygote breeding pairs, bred and genotyped as described in Uddin et al., 2011. CB1^(−/−) mice were bred from homozygote breeding pairs and genotyped as described in Pan et al., 2008. Mice were group-housed on a 12:12 light-dark cycle (lights on at 06:00), with food and water available ad libitum. All animal studies were approved by the Vanderbilt Institutional Animal Care and Use Committee and conducted in accordance with the Guide for the Care and Use of Laboratory Animals of the United States National Institutes of Health.
(§1) Mice were sacrificed by cervical dislocation and decapitation. The brain, lungs, liver, stomach, small intestines, and kidneys were then rapidly removed and frozen on a metal block in dry ice. The tissue was then placed in a tube and stored at −80° C. until extraction, usually one day after harvesting. For PG and eCB analysis, lipid extraction from tissue was carried out as described in Patel et al., 2009.
(§2) Analytes were quantified using LC-MS/MS on a Quantum triple-quadrupole mass spectrometer in positive-ion mode using selected reaction monitoring. Detection of eicosanoids was performed as described in Kingsley & Marnett, 2007. For fatty acid analysis the mobile phases used were 80 μM AgOAc with 0.1% (v/v) acetic acid in H2O (solvent A) and 120 μM AgOAc with 0.1% (v/v) acetic acid in MeOH (solvent B). The analytes were eluted using a gradient from 20% A to 99% B over 5 minutes. The transitions used were m/z 300→282 for PEA, m/z 328→310 for SEA, m/z 434→416 for OEA, m/z 456→438 for AEA, m/z 464→446 for AEA-d8, m/z 331→257 for 2-PG, m/z 359→285 for 2-SG, m/z 463→389 for 2-OG, m/z 485→411 for 2-AG, m/z 493→419 for 2-AG-d8, m/z 519→409 for AA, and m/z 527→417 for AA-d8. Peak areas for the analytes were normalized to the appropriate internal standard and then normalized to tissue mass for in vivo samples.

The subject of data set [5] is peripheral tissue eCB, NAE, MAG and PG levels. The data set can be described thus: Peripheral tissue NAE, MAG and PG levels after i.p. injection. The data set is classed as in vivo, mice. As to conditions: liver. Here is the method: as §1
as §2, with “samples. […]” for “samples.”

In data set [6] the test system is ICR mice. As to the kind of experiment: Novel open field test. The format is in vivo. Particulars: 10 mg/kg. Here is the method: Animals were tested for open-field activity in a novel environment one hour after i.p. injection of compound as described in Sumislawski et al., 2011. Briefly, one-hour sessions were performed using automated experimental chambers (27.9 27.9 cm; MEDOFA-510; MED Associates, Ga., Vermont, United States of America) under constant illumination within a sound-attenuated room. Analysis of open field activity was performed using Activity Monitor v5.10 (MED Associates).

The test system of data set [7] is ICR mice. As to the kind of experiment: Light-dark box. The format is in vivo. Particulars: 10 mg/kg.
The subject of data set [8] is ICR mice. The data set can be described thus: Elevated plus-maze (EPM). Particulars: 10 mg/kg. The format is in vivo.
Data set [9] relates to ICR mice. The data set can be described thus: Rectal temperature, catalepsy and hot plate antinociception. As to conditions: 10 mg/kg i.p.
Where [10] appears, read: AA 5 μM, read-out: AA % Inhibition.

“Also recorded” adds a separate entry of the source. Read-outs that look alike come from different tables or passages of the source. Some results are limits rather than exact numbers.

Take `O=C(O)Cc1ccc(-c2ccccc2)c(F)c1` [Compound 3a, 2-(2-fluoro-[1,1′-biphenyl]-4-yl)acetic acid]: the inhibition (usually how much of the control response was suppressed) at 5 µM in data set [1] (RAW264.7, at 5 μM compound) was found to be 60%. Also, the Average plasma concentration entry in data set [2] (10 mg/kg i.p. at 0, 8, 24, 32, 48 and 56 hr, sixteen hr after the last injection) is on record as “not detected”. For the same molecule, the half-life in data set [2] (male, C57BL/6, mouse, plasma, intraperitoneal, 10 mg/kg, read-out: Half-life (t1/2) in mouse plasma) is 2 to 3 h. Moreover, the concentration at 72 h in [2] (single 10 mg/kg i.p. injection, 1 hr) came out at 68 µM; in data set [2] (single 10 mg/kg i.p. injection, 2 hr) it was 50 µM; in data set [2] (single 10 mg/kg i.p. injection, 4 hr), 6 µM. Besides, on purified murine COX-2 (setting [10]), the inhibition at 10 µM was determined as 7%.
In turn, `CC(C)(C(=O)O)c1ccc(-c2ccccc2)c(F)c1` [Compound 4a, 2-(2-fluoro-[1,1′-biphenyl]-4-yl)-2-methylpropanoic acid] had an inhibition at 25 µM in data set [1] (RAW264.7) of 40%. Also, the IC50 – broadly, the midpoint of a concentration-inhibition curve – in [1] is 5.2 µM; at purified murine COX-2 (2-AG 5 μM) it was 1.1 µM. Moreover, the inhibition at 10 µM at purified murine COX-2 (setting [10]) turned out to be 5%.
`O=C(O)C1(c2ccc(-c3ccccc3)c(F)c2)CC1` [Compound 5a, 1-(2-fluoro-[1,1′-biphenyl]-4-yl)cyclopropanecarboxylic acid] came in with an inhibition at 25 µM in [1] (RAW264.7) of 55%. For the same molecule, the results for the IC50 (in data set [1]; on purified murine COX-2 (2-AG 5 μM)) were 10.2 µM and 2.3 µM, respectively. The inhibition at 10 µM on purified murine COX-2 (setting [10]) was 0%; at purified murine COX-2 (read-out: Maximum inhibition of 2-AG oxygenation, 2-AG 5 μM) it was 87%.
For `C[C@@H](C(=O)O)c1ccc(-c2ccccc2)c(F)c1` [Compound 7a, (R)-flurbiprofen], the “Conversion to the (S)-enantiomer” value in data set [3] was “did not occur”. Moreover, the concentration at 72 h in data set [2] (male, C57BL/6, mouse, plasma, intraperitoneal, 10 mg/kg i.p. at 0, 8, 24, 32, 48 and 56 hr, sixteen hr after the last injection) turned out to be 20 µM. The IC50 on FAAH is above 1000 µM.
Consider `CC(C)Cc1ccc([C@@H](C)C(=O)O)cc1` [Compound 7c, (R)-ibuprofen], for which the “Conversion to the (S)-enantiomer” value in [3] (DRG extracts, chiral HPLC) is reported as “did not occur”.
For `O=C(Nc1cccnc1)N1CCC(Cc2cccc(Oc3ccc(C(F)(F)F)cn3)c2)CC1` [PF-3845, N-3-pyridinyl-4-[[3-[[5-(trifluoromethyl)-2-pyridinyl]oxy]phenyl]methyl]-1-piperidinecarboxamide, reference compound], in data set [4], the “Brain levels of NAEs other than AEA” value is listed as “robustly increased”. The “Brain AEA levels” value in data set [4] (vs vehicle) was “robustly increased”. In addition, in [5], the “Liver NAE levels” value is recorded as “robust increases”. Besides, the “Center distance travelled and center time in the open-field arena” value in the data set on ICR mice [6] is “increased”. In the data set on ICR mice [7], the Light-zone time result was “significantly increased”, the “Number of light-zone entries” value is “significantly increased” and the “Overall locomotor activity in the light-dark box” value is on record as “without significantly affecting”. Besides, in the data set with ICR mice [8], the Open arm latency entry was “significantly reduced; also recorded: decreased” and the “Other EPM parameters (open arm time, total distance traveled)” value is reported as “did not affect; also recorded: did not increase”.
For `Cc1c(C(=O)c2cccc3ccccc23)c2cccc3c2n1[C@H](CN1CCOCC1)CO3` [Win-55212-2], in the data set with ICR mice [9], the “Antinociception in the hot plate test” value is “induced”, the Catalepsy result is recorded as “induced” and the “Hypothermia (rectal temperature)” value is listed as “induced”.

These data come from patent US20150183737A1, “COMPOSITIONS AND METHODS FOR SUBSTRATE-SELECTIVE INHIBITION OF ENDOCANNABINOID OXYGENATION” (Vanderbilt University, priority 2012, published 2015).
